Consider six compounds from patent EP1161424B1, “NEW DIAZOLE DERIVATIVES AS SEROTONERGIC AGENTS” (Wyeth, priority 1999, dated 2000).

For experiment [1], the target named is T1, human 5HT1A receptor (Homo sapiens, UniProt P08908).
T1 construct: expressed in transfected cells; host or cells: CHO cells, stably transfected
T1 sequence (P08908 1-422): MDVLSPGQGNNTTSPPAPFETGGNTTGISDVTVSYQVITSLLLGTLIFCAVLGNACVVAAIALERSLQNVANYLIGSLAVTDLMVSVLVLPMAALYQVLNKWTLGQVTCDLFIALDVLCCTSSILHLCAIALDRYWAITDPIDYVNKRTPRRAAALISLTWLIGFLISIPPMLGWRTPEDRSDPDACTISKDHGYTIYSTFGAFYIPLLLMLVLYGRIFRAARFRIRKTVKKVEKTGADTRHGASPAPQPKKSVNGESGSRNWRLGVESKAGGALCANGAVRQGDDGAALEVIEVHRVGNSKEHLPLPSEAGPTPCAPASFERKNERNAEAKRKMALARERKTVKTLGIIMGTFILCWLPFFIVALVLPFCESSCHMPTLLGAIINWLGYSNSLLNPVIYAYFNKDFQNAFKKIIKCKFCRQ
Put plainly: 5-HT1A receptor binding assay ([3H] 8-OH-DPAT displacement). Particulars: displacement of [3H] 8-OH-DPAT (1.5 nM) in CHO cells stably transfected with the human 5HT1A receptor. How it is done:
5-HT1A Receptor Binding Assay
High affinity for the serotonin 5-HT1A receptor was established by testing the claimed compound's ability to displace [^3H] 8-OH-DPAT binding in CHO cells stably transfected with the human 5HT1A receptor. Stably transfected CHO cells are grown in DMEM containing 10% heat inactivated FBS and non-essential amino acids. Cells are scraped off the plate, transferred to centrifuge tubes, and washed twice by centrifugation (2000 rpm for 10 min., 4°C) in buffer (50 mM Tris pH 7.5). The resulting pellets are aliquoted and placed at -80°C. On the day of assay, the cells are thawed on ice and resuspended in buffer. The binding assay is performed in a 96 well microtiter plate in a total volume of […]. Non-specific binding is determined in the presence of […] 5-HT, final ligand concentration is 1.5 nM. Following a 30 minute incubation at room temperature, the reaction is terminated by the addition of ice cold buffer and rapid filtration through a GF/B filter presoaked for 30 minutes in 0.5% PEI. Compounds are initially tested in a single point assay to determine percent inhibition at […], and Ki values are determined for the active compounds.
On the technique in general: In a radioligand displacement assay an active substance lowers the binding of a labelled ligand.

For experiment [2], the target named is T1, human 5HT1A receptor. As to the kind of experiment: 5-HT1A receptor intrinsic activity assay (cAMP, RIA). It counts as cell-based. Particulars: for cAMP Emax: agonist activity: reversal of forskolin-stimulated cAMP in CHO cells with human 5-HT1A receptor, % printed only; for IC50: antagonist, reversal of agonist induced activity, compounds with Emax = 0 %, preincubated 20 minutes before agonist and forskolin. On the procedure: 5-HT1A Receptor Intrinsic Activity Assay
The intrinsic activity of compounds of the present invention was established by testing the claimed compounds ability to reverse the stimulation of cyclic adenosinemonophosphate (cAMP) in CHO cells stably transfected with the human 5-HT1A receptor. Stably transfected CHO cells were grown in DMEM containing 10% heat inactivated FBS and non-essential amino acids. The cells are plated at a density of […] per well in a 24 well plate and incubated for 2 days in a CO2 incubator. On the second day, the media is replaced with 0.5 mL treatment buffer (DMEM + 25 mM HEPES, 5 mM theophylline, […] pargyline) and incubated for 10 minutes at 37°C. Wells are treated with forskolin ([…]) followed immediately by the test compound ([…] for initial screen) and incubated for an additional 10 minutes at 37°C. The reaction is terminated by removal of the media and addition of 0.5 mL ice cold assay buffer (supplied in the RIA kit). Plates are stored at -20°C prior to assessment of cAMP formation by RIA. EC50 values are determined for the active test compounds. Compounds shown to have no agonist activities (Emax = 0 %) are further analyzed for their ability to reverse agonist induced activity. In separate experiments, 6 concentrations of antagonist are preincubated for 20 minutes prior to the addition of agonist and forskolin. Cells are harvested as described above. The cAMP kit is supplied by Amersham and the RIA is performed as per kit instructions, and calculations of IC50 performed by GraphPad Prism.

The structures appear in SMILES notation.

Usually Ki stands for a measure of affinity in units of concentration, obtained from inhibition or displacement. A high value points to a looser hold on the target. For orientation: EC50 means the midpoint of the concentration-response curve. For the compound `O=C(N[C@@H](Cc1ccccc1)CN1CCN(c2nsnc2Cl)CC1)C1CCCCC1.O=C(O)/C=C/C(=O)O` [Compound 4, Cyclohexanecarboxylic acid {(1S)-1-benzyl-2-(4-(4-chloro[1,2,5}thiadiazol-3-yl)piperazin-1-yl]ethyl}amide fumarate], the affinity at human 5HT1A receptor [1] corresponds to a Ki of 0.84 nM. Moreover, at human 5HT1A receptor [2], the “cAMP Emax” value was 93.00%. On human 5HT1A receptor [2] (agonist, reversal of forskolin-stimulated cAMP in transfected CHO cells), the EC50 was 4.61 nM.
The compound `O=C(N[C@@H](Cc1ccccc1)CN1CCN(c2nsnc2Cl)CC1)c1ccncc1` [Compound 5] came in with a Ki on human 5HT1A receptor [1] of 425 nM. This counts as sub-micromolar.
Usually IC50 stands for the concentration that inhibits the measured activity by half. In turn, `CN(C(=O)C1CCCCC1)[C@H](Cc1ccccc1)CN1CCN(c2nsnc2Cl)CC1` [Compound 7] yielded a Ki on human 5HT1A receptor [1] of 4.55 nM. On human 5HT1A receptor [2], the “cAMP Emax” value is on record as 0.00% and the IC50 was 49.3 nM.
For `COc1nsnc1N1CCN(C[C@@H](Cc2ccccc2)N(C)C(=O)C2CCCCC2)CC1` [Compound 8, Cyclohexanecarboxylic acid {(1R)-1-benzyl-2-[4-(4-methoxy-[1,2,5]thiadiazol-3-yl)-piperazine-1-yl]ethyl}methyl amide], in that order: 1.55 nM, 0.00% and 72.7 nM.
On human 5HT1A receptor [1], `COc1nsnc1N1CCN(CC(Cc2ccccc2)N(C)C(=O)c2ccccc2)CC1` (centres unmarked) [Compound 9, N-{1-Benzyl-2-[4-(4-methoxy-[1,2,5]thiadiazol-3-yl)piperazin-1-yl]ethyl]-N-methylbenzamide] returned a Ki of 9.87 nM.
With `COc1nsnc1N1CCN(C[C@@H](Cc2cccnc2)NC(=O)C2(C)CCCCC2)CC1` [Compound 11, 1-Methylcyclohexanecarboxylic acid {(1R)-2-[4-(4-methoxy-[1,2,5]thiadiazol-3-yl)-piperazin-1-yl]-1-pyridin-3-ylmethylethyl} amide], on human 5HT1A receptor [1], the Ki is 3.04 nM. For the same compound, on human 5HT1A receptor [2], the “cAMP Emax” value was 0.000% and the IC50 came out at 113 nM.
